# Where no end group is shown, it is not given here.
# Experiments:
# extrinsic pathway = test: Prothrombin time (PT) in human plasma
# Experimental: (§1) Blood coagulation measurements using blood plasma taken from healthy human individuals were also performed. From the blood obtained through venipuncture and treated with sodium citrate (3.8% wt/vol) the plasma was isolated by centrifugation (2,000 g, 15 minutes, Jouan CR412 centrifuge).
# (§2) The effect of the protein variants of the present invention on the blood coagulation process was tested in three standard assays, the thrombin time, testing any direct effects on thrombin; prothrombin time, testing any effects on the extrinsic pathway; and the activated partial thromboplastin time, testing any effects on the intrinsic pathway. Blood was collected from a healthy individual by vein puncture after informed consent. The blood was treated with sodium-citrate (3.8% w/v) and centrifuged. All three assays were performed on the automated instrument Sysmex CA-1500 (Sysmex) with Innovin reagent (Dale Behring, Marburg, Germany).
# (§3) The inhibitors were applied in a fivefold serial dilution with the highest final concentration being 36 μM. This value is 3-4 orders of magnitudes higher than the KI values of the three protein variants of the present invention on human MASP-2. Even at the highest concentration the protein variants of the present invention have only little effect in the APTT test and no effect in the PT and TT tests.
# intrinsic pathway = test: Activated partial thromboplastin time (APTT) in human plasma
# Experimental: as §1, §2, §3
# thrombin = test: Thrombin time (TT) in human plasma
# Experimental: as §1, §2, §3
# human MASP-3 = molecular target: T1, human MASP-3 (Homo sapiens, UniProt P48740); test: KI determination on human MASP-3 catalytic fragment; format: biochemical; conditions: for Ki: catalytic fragment, Z-L-Lys-SBzl
# T1 construct: catalytic enzyme fragments containing the three C-terminal domains: CCP1-CCP2-SP
# T1 sequence (P48740 450-728 isoform P48740-2 limits assumed): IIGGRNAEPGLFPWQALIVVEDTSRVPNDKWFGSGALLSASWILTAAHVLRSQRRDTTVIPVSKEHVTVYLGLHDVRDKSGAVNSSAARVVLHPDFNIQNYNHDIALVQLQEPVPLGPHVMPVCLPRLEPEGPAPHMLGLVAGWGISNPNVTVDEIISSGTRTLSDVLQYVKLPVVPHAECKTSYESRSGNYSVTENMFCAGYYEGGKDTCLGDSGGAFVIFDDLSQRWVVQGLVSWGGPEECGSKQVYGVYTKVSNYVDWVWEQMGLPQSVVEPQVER
# Experimental: (§4) The inhibition equilibrium constant (KI) of all four inhibitor variants produced was measured on human MASP-2 and rat MASP-2. Additionally, KI values were measured also on human MASP-1 and human MASP-3 to assess the specificity of the inhibitors amongst the MASP enzymes. KI values of the inhibitors on bovine trypsin, a pancreatic model enzyme was also measured.
# (§5) For determining the KI of the inhibitors on MASP enzymes we used catalytic enzyme fragments containing the three C-terminal domains: CCP1-CCP2-SP. The synthetic substrate used in the measurements was Z-L-Lys-SBzl hydrochloride (Sigma, C3647), from which a 10 mM stock solution was prepared. The reactions were performed in a volume of 0.2 ml at room temperature in a buffer consisting of 20 mM HEPES; 145 mM NaCl; 5 mM CaCl2; 0.05% Triton-X100. The substrate cleaved by the enzyme entered into a reaction with the 5,5′-Dithiobis(2-nitrobenzoic acid) (DTNB, Ellman's reagent, Sigma—D8130) auxiliary substrate present in the solution in 2-fold excess to Z-L-Lys-SBzl. The release of the chromophore group created in this way was monitored via the change of absorbance at 410 nm using a BioTek Synergy H4 multimode microplate reader.
# (§6) A dilution sequence was prepared from the individual inhibitors, the enzyme was added to it, and it was incubated for 2 hours at room temperature. The samples were transferred on a 96-well microtiter plate (Nunc 269620). The reactions were started by adding the mixture of the substrate and the auxiliary substrate to the samples. The concentration of the substrate and the length of the measuring period were chosen so that under the given conditions the enzyme should consume less than 10% of the substrate. In this case we used 250 μM Z-L-Lys-SBzl and 500 μM DTNB in the reactions. In the course of measuring, a method developed for the characterisation of tight-binding inhibitors was used (Empie, 1982). The concentration of the product was measured as a function of reaction time. The slope of the straight line determined for the initial phase of the reaction was normalised with the slope obtained for the uninhibited enzyme reaction, and this value was multiplied with the total enzyme concentration. As a result of this we obtained the free enzyme concentration, which was plotted as a function of the total inhibitor concentration and the Ki value was determined according to the following equation:
# (§7) E=y=E0−(E0+x+Ki−(((E0+x+Ki)^2)−4*E0*x)^(½))/2,
# (§8) where E is the free (uninhibited) enzyme concentration, and E0 is the total enzyme concentration. The stock concentration of the inhibitors was determined by titration with bovine trypsin of known concentration. The results were calculated as the average of parallel measurements.
# human MASP-1 = molecular target: T2, human MASP-1 (Homo sapiens, UniProt P48740); test: KI determination on human MASP-1 catalytic fragment; format: biochemical; design: key to KI on human MASP-1: N.E.: not effective; conditions: for KI on human MASP-1: catalytic fragment, Z-L-Lys-SBzl
# T2 construct: catalytic enzyme fragments containing the three C-terminal domains: CCP1-CCP2-SP
# T2 sequence (P48740 449-699 limits assumed): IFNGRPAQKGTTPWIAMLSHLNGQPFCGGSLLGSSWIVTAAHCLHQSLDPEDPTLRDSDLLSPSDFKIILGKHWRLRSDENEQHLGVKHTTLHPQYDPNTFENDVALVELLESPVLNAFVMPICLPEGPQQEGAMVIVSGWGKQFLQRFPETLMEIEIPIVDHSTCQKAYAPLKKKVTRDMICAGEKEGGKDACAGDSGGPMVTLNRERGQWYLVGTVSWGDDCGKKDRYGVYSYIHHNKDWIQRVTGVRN
# T2 sequence (P48740 298-448 partner limits assumed): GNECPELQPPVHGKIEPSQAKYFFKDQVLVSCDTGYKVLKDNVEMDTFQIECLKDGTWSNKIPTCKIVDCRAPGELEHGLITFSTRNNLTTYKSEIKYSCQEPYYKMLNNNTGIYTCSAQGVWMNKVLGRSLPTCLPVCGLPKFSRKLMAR
# Experimental: as §4, §5, §6, §7, §8
# rat MASP-2 = molecular target: T3, rat MASP-2 (Rattus norvegicus, UniProt Q9JJS8); test: KI determination on rat MASP-2 catalytic fragment; format: biochemical; conditions: KI ratio
# T3 construct: made in house
# T3 sequence (Q9JJS8 with tags, fused parts or gaps L506P/I507H/R622A): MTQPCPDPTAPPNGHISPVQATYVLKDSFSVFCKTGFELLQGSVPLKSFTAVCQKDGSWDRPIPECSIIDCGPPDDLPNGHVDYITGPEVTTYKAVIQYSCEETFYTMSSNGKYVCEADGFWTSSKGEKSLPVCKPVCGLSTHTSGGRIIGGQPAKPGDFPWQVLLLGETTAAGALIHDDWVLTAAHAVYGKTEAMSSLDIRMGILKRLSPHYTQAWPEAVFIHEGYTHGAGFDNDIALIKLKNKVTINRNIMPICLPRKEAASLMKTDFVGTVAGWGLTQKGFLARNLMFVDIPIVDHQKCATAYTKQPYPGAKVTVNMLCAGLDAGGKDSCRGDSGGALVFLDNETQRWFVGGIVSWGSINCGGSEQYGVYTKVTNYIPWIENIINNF
# Experimental: as §4
# For determining the KI of the inhibitors on MASP enzymes we used catalytic enzyme fragments containing the three C-terminal domains: CCP1-CCP2-SP. The synthetic substrate used in the measurements was Z-L-Lys-SBzl hydrochloride (Sigma, C3647), from which a 10 mM stock solution was prepared. […] The release of the chromophore group created in this way was monitored via the change of absorbance at 410 nm using a BioTek Synergy H4 multimode microplate reader.
# A dilution sequence was prepared from the individual inhibitors, the enzyme was added to it, and it was incubated for 2 hours at room temperature. […] The concentration of the product was measured as a function of reaction time. The slope of the straight line determined for the initial phase of the reaction was normalised with the slope obtained for the uninhibited enzyme reaction, and this value was multiplied with the total enzyme concentration. […]
# MASP-2 = MASP-2 (Homo sapiens, UniProt O00187); design: host or cells: diluted serum; conditions: Wouters 2011; Keizer 2015; read-out: IC50 of MASP-2 inhibition in solid phase ELISA assay with diluted serum; cited from earlier work
# Sequence of MASP-2 (O00187 16-686, species assumed): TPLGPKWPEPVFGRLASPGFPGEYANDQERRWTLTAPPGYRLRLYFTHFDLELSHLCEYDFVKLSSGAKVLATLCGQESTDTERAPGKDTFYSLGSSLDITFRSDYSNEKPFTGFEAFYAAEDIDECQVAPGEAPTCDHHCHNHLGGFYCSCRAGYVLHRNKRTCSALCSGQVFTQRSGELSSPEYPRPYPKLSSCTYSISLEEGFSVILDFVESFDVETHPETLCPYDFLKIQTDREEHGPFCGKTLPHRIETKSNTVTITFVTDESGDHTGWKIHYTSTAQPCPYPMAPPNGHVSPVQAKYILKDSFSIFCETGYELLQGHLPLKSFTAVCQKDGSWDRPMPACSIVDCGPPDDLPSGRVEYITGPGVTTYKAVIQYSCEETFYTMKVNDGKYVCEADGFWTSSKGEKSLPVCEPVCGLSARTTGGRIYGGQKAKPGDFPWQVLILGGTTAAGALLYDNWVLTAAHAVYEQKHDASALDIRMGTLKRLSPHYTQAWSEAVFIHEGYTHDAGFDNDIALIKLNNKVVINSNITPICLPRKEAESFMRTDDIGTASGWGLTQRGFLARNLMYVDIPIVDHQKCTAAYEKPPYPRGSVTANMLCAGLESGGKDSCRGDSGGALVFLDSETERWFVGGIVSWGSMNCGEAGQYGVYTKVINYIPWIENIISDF
# porcine trypsin = porcine trypsin (Sus scrofa, UniProt P00761); conditions: Petersen 1996; read-out: KI towards porcine trypsin; cited from earlier work
# Sequence of porcine trypsin (P00761 9-231): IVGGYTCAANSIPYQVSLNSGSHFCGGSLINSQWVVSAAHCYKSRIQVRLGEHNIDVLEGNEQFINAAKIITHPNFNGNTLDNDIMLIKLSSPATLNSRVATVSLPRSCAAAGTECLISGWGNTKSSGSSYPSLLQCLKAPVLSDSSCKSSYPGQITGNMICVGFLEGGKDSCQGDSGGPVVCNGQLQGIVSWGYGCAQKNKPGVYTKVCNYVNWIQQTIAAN
Substance,PT (extrinsic pathway; inhibitor 0.1 μM) [s],PT (extrinsic pathway; inhibitor 0.3 μM) [s],PT (extrinsic pathway; inhibitor 1.4 μM) [s],PT (extrinsic pathway; inhibitor 7.2 μM) [s],PT (extrinsic pathway; inhibitor 36.0 μM) [s],APTT (intrinsic pathway; inhibitor 0.1 μM) [s],APTT (intrinsic pathway; inhibitor 0.3 μM) [s],APTT (intrinsic pathway; inhibitor 1.4 μM) [s],APTT (intrinsic pathway; inhibitor 7.2 μM) [s],APTT (intrinsic pathway; inhibitor 36.0 μM) [s],TT (thrombin; inhibitor 0.1 μM) [s],TT (thrombin; inhibitor 0.3 μM) [s],TT (thrombin; inhibitor 1.4 μM) [s],TT (thrombin; inhibitor 7.2 μM) [s],TT (thrombin; inhibitor 36.0 μM) [s],Ki (human MASP-3) [µM],KI on human MASP-1 (human MASP-1),also measured
SEQ ID NO: 11: TFPI-D2 variant protein with inhibitor loop FCRAVKR (SEQ ID NO: 1) (KPDFCFLEEDPGFCRAVKRRYFYNNQTKQCERFKYGGCLGNMNNFETLEECKNICEDG; ends and bridges not checked; cysteine pairing not given here),10.7,10.8,11.0,11.0,11.4,36.3,36.5,37.0,39.3,46.0,16.5,16.6,16.7,16.4,16.0,> 30,N.E.,–
SEQ ID NO: 17: TFPI-D2 variant protein with inhibitor loop VCRAVKR (SEQ ID NO: 7) (KPDFCFLEEDPGVCRAVKRRYFYNNQTKQCERFKYGGCLGNMNNFETLEECKNICEDG; ends and bridges not checked; cysteine pairing not given here),10.8,10.8,10.8,10.9,11.4,36.8,37.2,38.1,40.6,47.4,16.6,16.3,16.4,16.4,16.0,> 30,N.E.,fold more potent than SGMI-2 on rat MASP-2 (rat MASP-2): about 3 fold
TFPI-D2 [reference compound],–,–,–,–,–,–,–,–,–,–,–,–,–,–,–,> 30,N.E.,IC50 (MASP-2): 10 µM; inhibition of MASP-3 (human MASP-3; result in words): No considerable inhibition; inhibition of MASP-1 (human MASP-1; result in words): No considerable inhibition; Ki (porcine trypsin): 0.0001 µM

# Reference: US20200131249A1, “NOVEL PROTEINS AND USE THEREOF” (EVOLVERITAS KFT., priority 2017, published 2020)
